Experimental data published in patent US20080194020A1, “Methods For Producing Dendritic Cells That Have Acquired Ctl-Inducing Ability” (Medical and Biological Laboratories Co., Ltd., priority 2004, published 2008).
Peptide text beside a SMILES is read from it. * marks the point of attachment. Cbz = O=C(OCc1ccccc1)*

How the values were obtained:
Type in all cases: cell-based, mouse
DC2.4 cells [1] = experiment: MHC class I cross-presentation by DC2.4 cells to OT-I CD8+ T cells (IL-2 ELISA); settings: for effect on stimulation of OT-I CD8+ T cells by OVA (IL-2 production) / effect on stimulation of OT-I CD8+ T cells by SIINFEKL peptide (IL-2 production): FIG. 8b; for effect on stimulation of OT-I CD8+ T cells by OVA (IL-2 production): OVA 250 μg mL−1; for effect on stimulation of OT-I CD8+ T cells by SIINFEKL peptide (IL-2 production): SIINFEKL 10 ng mL−1
Text: Whether knock-down of cellular components involved in ERAD decreases the cross-presentation of exogenous OVA antigen was examined using a system for evaluating the level of antigen presentation, which uses naive CD8^+ T cells from OT-I mice and DC2.4 cells. The DC2.4 cells used as a model of dendritic cells are of the H-2Kb mouse MHC class I haplotype. OT-I (H-2Kb) mice are transgenic mice expressing a T cell receptor (TCRα and β) that recognizes an antigenic peptide (SIINFEKL) (SEQ ID NO: 15) derived from OVA presented on the H-2Kb molecules. The CD8^+ cells of OT-I mice are activated when they recognize OVA peptides presented by BMDCs derived from H-2Kb mice or by DC2.4 cells. When OVA or bOVA is incubated with and affixed onto DC2.4 cells and the cells are further incubated with naive CD8^+ T cells of OT-I mice, the amount of IL-2 produced by OT-I CD8^+ T cells serves as an index of T-cell stimulation as a result of OVA antigen presented by DC2.4 cells.
Parental or knocked-down DC2.4 cells were pre-incubated in a culture medium supplemented with 50 μg mL^−1 polymyxin B for 30 minutes in the presence or absence of lactacystin or MG-132, and incubated with OVA (250 μg mL^−1) or SIINFEKL peptides (10 ng mL^−1) for six hours. The cells were washed, fixed with 1% paraformaldehyde, and aliquoted into microtiter plates (5×10^4 per well). 5×10^4 CD8^+ T cells purified from splenocytes of OT-1 mice using magnetic beads were added to each well and after a 24-hour incubation, the IL-2 secretion was measured by ELISA (BD Biosciences) in triplicate.
DC2.4 cells were incubated with OVA (0, 50, or 250 μg/mL) in RPMI1640/10c% FCS for six hours at 37° C., in the presence or absence of pig-derived HSP90 (10 μg/mL). After washing away the antigen and HSP, OT-I CD8^+ T cells were added, cells were cultured overnight at 37° C., and the amount of IL-2 comprised in the supernatant was measured by the ELISA method.
The timing of the addition of HSP90 (10 μg/mL) and OVA (250 μg/mL) to DC2.4 cells was varied, and the effect on class I antigen presentation was observed. (i) HSP90 was added first, DC2.4 cells were washed, and then OVA was added. (ii) HSP90 and OVA were added simultaneously to DC2.4 cells. (iii) OVA was added first, and after washing DC2.4 cells, HSP90 was added. The results obtained under these three conditions were compared. As a control for all these conditions, an experiment in which only OVA, but not HSP90, was added was also carried out.
Under condition (i), HSP90 was added to DC2.4 cells, the cells were cultured for 30 minutes and then washed to remove HSP90. Next, OVA was added and the cells were cultured for three hours. Thereafter, OVA was removed by washing, and cells were cultured in just the culture medium for three hours. DC2.4 cells activated with OVA by the above procedure were plated in a 96-well plate, OT-I mouse-derived CD8^+ T cells were added to this, and after culturing overnight, the amount of IL-2 released into the supernatant was measured by ELISA.
Under condition (ii), OVA and HSP90 were added simultaneously to DC2.4 cells, cells were cultured for three hours, then washed, and cultured in just the culture medium for three hours. Thereafter, the procedures to investigate the activation of OT-I mouse-derived CD8^+ T cells was carried out similarly to in (i) above.
Under condition (iii), OVA was first added to DC2.4 cells, cells were cultured for three hours, and then washed to remove OVA. Next, HSP90 was added, and the cells were cultured for another three hours. The procedures that follow were carried out similarly to that of (i) and (ii). Meanwhile, timings were set such that the incubation times during the stage in which cells are in contact with OVA and the stage at which OVA has been taken up were the same under conditions (i) to (iii).

DC2.4 cells [2] = experiment: Degradation of cell-bound bOVA in DC2.4 cells (pulse-chase, SA beads, Western blot); settings: for effect on decrease (degradation) of cell-bound bOVA: DC2.4 cells incubated with bOVA one hour, chased up to four hours, inhibitor present; for effect on degradation of bOVA taken up into cells: FIG. 1b; for effect on degradation of accumulated bOVA (ERAD inhibition): DC2.4 cells pulsed with bOVA in the presence of MG-132, chased four hours; for effect on bOVA degradation: FIG. 4b
Protocol: Next, DC2.4 cells were incubated with bOVA for one hour, and this was then chased for up to four hours. Cell-bound bOVA was recovered from total cell lysates by streptavidin-agarose and separated by SDS-PAGE.
Depletion of Ca^2+ in the ER is known to inhibit ERAD. Thapsigargin (Tg) is known to decrease the Ca^2+ concentration in the ER lumen by binding to the ER membrane and functioning as an ionophore and to inhibit ERAD. Thus, in the presence of Tg, bOVA degradation by ERAD is predicted to be suppressed. DC2.4 cells were pulsed with bOVA in the presence of MG-132, then washed with PBS or with PBS containing 1 mM EGTA, and then chased for four hours.
Furthermore, the effect of tunicamycin treatment on bOVA accumulation was examined. When cells are treated with tunicamycin (Tm), N-type glycosylation is inhibited, and abnormally folded proteins accumulate in the ER lumen.

DC2.4 cells [3] = experiment: MHC class II antigen presentation by DC2.4 cells to OT-II CD4+ T cells (IL-2 production); settings: DC2.4 cells pretreated in the presence of NH4Cl, cultured with OVA
Protocol: DC2.4 cells pretreated in the presence of NH4Cl were cultured with OVA, and then the stimulation of OT-I CD8^+ T cells in response to MHC class I antigen presentation (circles) and stimulation of OT-II CD4^+ T cells in response to MHC class II antigen presentation (triangles) was determined by measuring IL-2 production levels. IL-2 production level in the presence of NH4Cl was expressed as a ratio relative to the control (IL-2 production was 700 pg/mL relative to OT-I, and 20 pg mL relative to OT-II).

Compound: CC(C)C[C@@H](C=O)NC(=O)[C@H](CC(C)C)NC(=O)[C@H](CC(C)C)NC(=O)OCc1ccccc1 [MG-132, reference compound] (Cbz-Leu-Leu-Leu-aldehyde)
- effect on stimulation of OT-I CD8+ T cells by OVA (IL-2 production) (DC2.4 cells [1]; MG-132 25 μM): suppressed stimulation by OVA
- effect on stimulation of OT-I CD8+ T cells by SIINFEKL peptide (IL-2 production) (DC2.4 cells [1]; MG-132 25 μM): did not suppress stimulation by the SIINFEKL peptide
- effect on decrease (degradation) of cell-bound bOVA (DC2.4 cells [2]): this decrease was blocked
- effect on degradation of bOVA taken up into cells (DC2.4 cells [2]; MG-132 10 μM): reduced the degradation of bOVA taken up into cells

Compound: Cl.N [NH4Cl, Ammonium chloride, reference compound]
- effect on presentation of OVA antigen with MHC class I to OT-I CD8+ T cells (DC2.4 cells [1]; DC2.4 cells pretreated with inhibitor, cultured with OVA): did not reduce the presentation of the OVA antigen with MHC class I
- effect on decrease (degradation) of cell-bound bOVA (DC2.4 cells [2]): did not significantly affect bOVA degradation
- effect on degradation of bOVA taken up into cells (DC2.4 cells [2]; NH4Cl 50 mM): did not reduce this degradation
- effect on presentation of OVA antigen with MHC class II to OT-II CD4+ cells (DC2.4 cells [3]): inhibited the presentation with MHC class II

Compound: CC(=O)N[C@@H](CSC(=O)[C@]1([C@@H](O)C(C)C)NC(=O)[C@H](C)[C@@H]1O)C(=O)O [lactacystin, reference compound]
- effect on stimulation of OT-I CD8+ T cells by OVA (IL-2 production) (DC2.4 cells [1]; Lactastatin 10 μM): suppressed stimulation by OVA
- effect on stimulation of OT-I CD8+ T cells by SIINFEKL peptide (IL-2 production) (DC2.4 cells [1]; Lactastatin 10 μM): did not suppress stimulation by the SIINFEKL peptide
- effect on decrease (degradation) of cell-bound bOVA (DC2.4 cells [2]): this decrease was blocked
- effect on degradation of bOVA taken up into cells (DC2.4 cells [2]; lactastatin 2 μM): reduced the degradation of bOVA taken up into cells

Compound: C/C=C(/C)C(=O)O[C@H]1C(C)=C2[C@H]([C@@H]1OC(=O)CCCCCCC)[C@@](C)(OC(C)=O)C[C@H](OC(=O)CCC)[C@@]1(O)[C@H]2OC(=O)[C@@]1(C)O [thapsigargin, Thapsigargin]
- effect on degradation of accumulated bOVA (ERAD inhibition) (DC2.4 cells [2]): inhibited the degradation of accumulated bOVA
- effect on bOVA degradation (DC2.4 cells [2]; thapsigargin 300 nM): bOVA degradation is inhibited

Compound: tunicamycin
- effect on degradation of accumulated bOVA (ERAD inhibition) (DC2.4 cells [2]): bOVA degradation was inhibited
- effect on bOVA degradation (DC2.4 cells [2]; tunicamycin 2 g): bOVA degradation is inhibited
